Reference: US12583895B2, “Polypeptides for restoring endothelial function and methods of use thereof” (Vanderbilt University, priority 2019, dated 2026)
Entries after “also recorded” stand apart in the source; their conditions may differ. Non-standard residues stand in square brackets, D forms with d. No end group written: not given here. pS = N[C@@H](COP(=O)(O)O)C(=O)O

Tests used:
[1] = tested on: rat aorta; test: Endothelial-dependent relaxation of rat aorta after BzATP (ATP / P2X7R) injury, muscle bath; assay type: cell-based; details: BzATP 1 mM, room temperature; for endothelial function (percent relaxation to carbachol of PE-precontracted tissue) after BzATP injury: peptide 100 and 500 μM, 1 hour
Description: Freshly isolated rat aorta was treated with 3′-O-(4-Benzoyl)benzoyl adenosine 5′-triphosphate (BzATP, 1 mM), an analogue of ATP, to induce injury in the absence or presence of NiPp (100 and 500 μM) for 1 hour at room temperature. To determine the effect of injury on endothelial function, phenylephrine (PE)-precontracted tissues were treated with carbachol (CCH; 5×10^−7 M) and the percent relaxation was determined as a change to the maximal PE-induced contraction. Data are reported as mean responses±standard deviation. n=5-6. *p<0.05, paired t-test.
Freshly isolated rat aorta was treated with 3′-O-(4-Benzoyl)benzoyl adenosine 5′-triphosphate (BzATP, 1 mM), an analogue of ATP, to induce injury in the absence or presence of NiPp, NiPp3, or scr3NiPp (A, 100 and B, 500 μM) for 1 hour at room temperature. To determine the effect of injury on endothelial function, phenylephrine (PE)-precontracted tissues were treated with escalating doses of carbachol (CCH; 10^−10 to 10^−5M) and the percent relaxation was determined as a change to the maximal PE-induced contraction. n=7. *p<0.05, two-way ANOVA with Tukey post-tests. There were significant differences between BzATP-treated vs ctrl or NiPp-treated RA.
Tissue rings were then transferred to NS and continued incubation in the absence or presence of NiPp (500 μM) for 2 h at room temperature. Control rings (Ctrl) were incubated in PL for 2.5 h. […] After treatments, RA were suspended in the muscle bath, contracted with PE and then treated with escalating doses of carbachol (CCH; 10^−8 to 10^−5M). The percent relaxation was determined as a change to the maximal PE-induced contraction. Percent relaxation to 5×10^−7 M CCH is shown. n=5-7 rats. *p<0.05 in one-way ANOVA with Tukey post-test. Data are expressed as mean±SD.
NiPp was synthesized at 3 separate times and tested in the muscle bath using rat aorta (RA). RA was either left untreated (Ctrl) or treated with BzATP (1 mM) in the absence of presence of NiPp (500 μM) in PL for 2 h at room temperature. After treatments, RA were suspended in the muscle bath, contracted with PE and then treated with escalating doses of carbachol 5×10^−7 M CCH. The percent relaxation was determined as a change to the maximal PE-induced contraction. […] Data are expressed as mean±SD.
Measurement of endothelial-dependent relaxation. […]
This produced the maximal force tension relationship as previously described. […] Contractile responses were defined by stress, calculated using force generated by tissues as follows: stress (×10^5 N/m^2)=force (g)×0.0987/area, where area=wet weight (mg)/at maximal length (mm)]/1.055.
Relaxation was calculated as percent change in stress compared to the maximal PE-induced contraction (set as 100%). […]

[2] = target: p38 MAPKα (MAPK14) (Homo sapiens, UniProt Q16539); test: SelectScreen kinase profiling; assay type: biochemical; details: peptide 100 μM, single concentration
Description: FIGS. 14A and 14B show kinase profiling of polypeptides. NiPp, scr3NiPp, and NiPp3 were profiled against 490 kinases at 100 uM using the SelectScreen Kinase Profiling Service (www.thermofisher.com). […] NiPp inhibits MSK1 and p38MAPK alpha by >60%. These two kinases are central to the p38MAPK kinase signaling cascade that play important roles in stress and inflammatory responses. NiPp-specific inhibitory activity to p38 MAPK were not detected for NiPp3 (non-phosphorylated) or scr3NiPp (scrambled) polypeptides.
Kinase profiling. NiPp was dissolved in DMSO, screened at a single concentration of 100 μM using in vitro kinase assays (SelectScreen Kinase Profiling Service; ThermoFisher Scientific, Madison WI) including the Z'LYTE and Adapta kinase activity assays and the LanthaScreen Eu Kinase Binding Assay). Candidate interactions were predicted using STRING Version 11 (www.string-db-org) with the human database at confidence=0.7.
As injury leads to increased p38 MAPK phosphorylation and decreased Niban phosphorylation, one of the mechanisms by which NiPp restores function after endothelial injury can be kinase inhibition. A kinase profiling was performed using three different profiling platforms that measure activity and kinase/substrate binding. […]

Chain of p38 MAPKα (MAPK14) (Q16539 whole entry): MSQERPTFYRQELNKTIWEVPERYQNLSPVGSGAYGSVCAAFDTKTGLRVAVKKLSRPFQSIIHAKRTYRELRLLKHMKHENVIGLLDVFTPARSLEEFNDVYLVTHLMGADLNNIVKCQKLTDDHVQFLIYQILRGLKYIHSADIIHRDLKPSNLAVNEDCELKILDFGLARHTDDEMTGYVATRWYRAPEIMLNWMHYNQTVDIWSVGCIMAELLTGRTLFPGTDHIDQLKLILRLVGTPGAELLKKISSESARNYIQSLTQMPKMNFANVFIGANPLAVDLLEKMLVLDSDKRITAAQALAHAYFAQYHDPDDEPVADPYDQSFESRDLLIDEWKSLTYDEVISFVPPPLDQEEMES

Row | Substance | endothelial function (percent relaxation to 5×10^−7 M CCH) after P2X7R activation by BzATP ([1]; NiPp 500 μM in PL, 1 h) | endothelial function (percent relaxation to carbachol of PE-precontracted tissue) after BzATP injury [1] | % inhibition of p38 MAPKα [2]
1 | YARAAARQARASPAARRA(pS)AILPG (YARAAARQARASPAARRA[pS]AILPG) [NiPp, Cell-permeant phosphopeptide mimetic of Niban: transduction domain … conjugated to the region surrounding serine 602 of Niban] | prevented; also recorded: restores | restored | –
2 | YARAAARQARAAGSPPLA(pS)AIARR (YARAAARQARAAGSPPLA[pS]AIARR) [scr3NiPp] | – | did not restore | not detected
3 | YARAAARQARASPAARRASAILPG (not fully specified (residue 19)) [NiPp3] | – | did not restore | not detected
